# Assay results as given in patent US20250154121A1, “CYCLIC(ALKYL)(AMINO)ALKOXY-SUBSTITUTED ARYL-PYRONE COMPOUND AND USE THEREOF” (priority 2022, published 2025).
# Read-outs that look alike come from different tables or passages of the source.
# Key:
# [1] = system: Influenza A (H1N1) virus FM1 strain; test: Mouse pneumonia model infected with influenza A (H1N1) virus FM1 strain (lung index); type: in vivo, ICR mice; settings: for inhibition in vivo at 20 mg/kg / inhibition in vivo at 40 mg/kg / inhibition in vivo at 25 mg/kg / inhibition in vivo at 50 mg/kg: Influenza A virus, H1N1, po, 96 h, read-out: inhibition rate (%)
# Method: ICR mice were taken and randomly divided into: normal control group, model control group, ribavirin control group, compound 4, compound F1, compound F2, and compound F3 according to their weight class, and each drug was given in two dosage groups (10 mice in each group). Except for the normal control group, mice were slightly anesthetized with ether and infected with 15 LD50 H1N1 influenza virus liquid FM1 strain by nasal drops (30 μl per animal). The administration was started on the day of infection at 0.2 ml/10 g by gavage each time once a day for 4 days, and the normal control and model control groups were gavaged with distilled water under the same conditions. The mice were weighed and dissected on Day 5, and the lung was weighed to calculate lung index and lung index inhibition. The results were statistically processed using t-test for comparison between groups.
# ICR mice were taken and randomly divided by weight class: normal control group, model control group, oseltamivir control group, compound 4, compound F4, compound F5, compound 5, and compound 7 according to their weight class, and each drug was given in two dosage groups (10 mice in each group). Except for the normal control group, mice were slightly anesthetized with ether and infected with 15 LD50 H1N1 influenza virus liquid (FM1/PR8 strain) by nasal drops (30 μl per each animal). The administration was started on the day of infection at 0.2 ml/10 g by gavage each time once a day for 4 days, and the normal control and model control groups were gavaged with distilled water under the same conditions. The mice were weighed and dissected on Day 5, and lung was weighed to calculate lung index and lung index inhibition. The results were statistically processed using t-test for comparison between groups.
# ICR mice were taken and randomly divided into 9 groups according to the body weight: a normal control group, model control group, oseltamivir control group, and two dosage groups of Compound 9, Compound 12 and Compound 2, 10 mice in each group. Except the normal control group, mice were slightly anesthetized with ether and infected with 15 LD50 H1N1/PR8 influenza virus liquid by nasal drops at 30 μl per mouse. The administration was started on the day of infection, at 0.2 ml/10 g each time by gavage once a day for 4 days, and the normal control and model control groups were gavaged with distilled water under the same conditions. The mice were weighed and dissected on Day 5, and lungs were weighed to calculate lung index and lung index inhibition. The results were statistically processed using t-test for comparison between groups.
# [2] = system: Human Coronavirus 229E (HCoV-229E); test: animal or person; type: in vivo; settings: for inhibition in vivo at 7.5 mg/kg/day / inhibition in vivo at 15 mg/kg/day / inhibition in vivo at 30 mg/kg/day / inhibition in vivo at 40 mg/kg/day / inhibition in vivo at 50 mg/kg/day: Human coronavirus 229E, in Mus musculus, po, 96 h, read-out: inhibition rate (%)
# [3] = Table 2 (Example 14), 20 mg/kg gavage once a day for 4 days
# [4] = Table 2 (Example 14), 40 mg/kg gavage once a day for 4 days
# [5] = Table 5 (Example 16), 7.5 mg/kg/d gavage for 4 days
# [6] = Table 5 (Example 16), 15 mg/kg/d gavage for 4 days
# [7] = Table 5 (Example 16), 30 mg/kg/d gavage for 4 days
# [8] = Table 1 (Example 13), 25 mg/kg gavage once a day for 4 days
# [9] = Table 1 (Example 13), 50 mg/kg gavage once a day for 4 days
# [10] = Table 4 (Example 15), 40 mg/kg/d gavage for 4 days
# [11] = Table 4 (Example 15), 50 mg/kg/d gavage for 4 days
# [12] = Table 10 (Example 23), 7.5 mg/kg/d gavage for 4 days
Structure (SMILES),"inhibition in vivo at 20 mg/kg [1, 3]","inhibition in vivo at 40 mg/kg [1, 4]","lung index [1, 3]","lung index [1, 4]","inhibition in vivo at 7.5 mg/kg/day [2, 5]","inhibition in vivo at 15 mg/kg/day [2, 6]","inhibition in vivo at 30 mg/kg/day [2, 7]","lung index [2, 5]","lung index [2, 6]","lung index [2, 7]","inhibition in vivo at 25 mg/kg [1, 8]","inhibition in vivo at 50 mg/kg [1, 9]","lung index [1, 8]","lung index [1, 9]","inhibition in vivo at 40 mg/kg/day [2, 10]","inhibition in vivo at 50 mg/kg/day [2, 11]","inhibition in vivo at 7.5 mg/kg/day [2, 12]","lung index [2, 10]","lung index [2, 11]","lung index [2, 12]"
CC1(NCCOc2ccc3c(=O)c(-c4ccccc4)coc3c2)CC1 [Compound 5],-25.1%,8.44%,1.20 ± 0.16,1.07 ± 0.21,22.7%,-17%,-7%,0.76 ± 0.08 g lung weight × 100/g body weight,0.80 ± 0.10 g lung weight × 100/g body weight,0.79 ± 0.08 g lung weight × 100/g body weight,–,–,–,–,–,–,–,–,–,–
O=c1c(-c2ccccc2)coc2cc(OCCNC3CCCCC3)ccc12 [Compound 7],21%,30.2%,1.02 ± 0.12,0.98 ± 0.18,-17%,41.6%,15.8%,0.80 ± 0.09 g lung weight × 100/g body weight,0.74 ± 0.06 g lung weight × 100/g body weight,0.76 ± 0.07 g lung weight × 100/g body weight,–,–,–,–,–,–,–,–,–,–
"O=c1c(-c2ccccc2)coc2cc(O)ccc12 [Compound F1, reference compound]",–,–,–,–,–,–,–,–,–,–,11.1%,30%,1.17 ± 0.09,1.06 ± 0.13,15.9%,20.4%,27.2%,0.81 ± 0.06 g lung weight × 100/g body weight,0.80 ± 0.05 g lung weight × 100/g body weight,0.85 ± 0.07 g lung weight × 100/g body weight
"COc1ccc(-c2coc3cc(O[C@@H]4OC(CO)[C@@H](O)C(O)C4O)ccc3c2=O)cc1O (stereo partly drawn) [Compound F2, reference compound]",–,–,–,–,–,–,–,–,–,–,17.1%,19.1%,1.13 ± 0.18,1.12 ± 0.17,1.45%,10.6%,–,0.84 ± 0.05 g lung weight × 100/g body weight,0.82 ± 0.06 g lung weight × 100/g body weight,–
"COc1ccc(-c2coc3cc(O)ccc3c2=O)cc1O [Compound F3, reference compound]",–,–,–,–,–,–,–,–,–,–,4.07%,-18.7%,1.19 ± 0.31,1.31 ± 0.22,7.71%,1.81%,–,0.83 ± 0.09 g lung weight × 100/g body weight,0.84 ± 0.06 g lung weight × 100/g body weight,–
"COCCOc1ccc2c(=O)c(-c3ccccc3)coc2c1 [Compound F4, reference compound]",-9.25%,-29.3%,1.14 ± 0.12,1.22 ± 0.13,-86%,-64%,37.2%,0.86 ± 0.07 g lung weight × 100/g body weight,0.84 ± 0.07 g lung weight × 100/g body weight,0.75 ± 0.13 g lung weight × 100/g body weight,–,–,–,–,–,–,–,–,–,–
"CC(=O)NCCOc1ccc2c(=O)c(-c3ccccc3)coc2c1 [Compound F5, reference compound]",-31.3%,0.35%,1.22 ± 0.11,1.10 ± 0.24,-41%,-72%,17%,0.82 ± 0.08 g lung weight × 100/g body weight,0.85 ± 0.08 g lung weight × 100/g body weight,0.77 ± 0.11 g lung weight × 100/g body weight,–,–,–,–,–,–,–,–,–,–
